Laboratory results from paper PMC11672400, “Synthesis, Spectroscopic Characterization, Structural Analysis, and Evaluation of Anti-Tumor, Antimicrobial, and Antibiofilm Activities of Halogenoaminopyrazoles Derivatives” (Antibiotics, 2024).
Converted amounts (≈) assume the structure as drawn. Where two headings read alike, the source gives them in different places.

Legend:
[1] = MTT cell viability / cytotoxicity on normal fibroblasts; format: cell-based, mouse; conditions: mouse
Description: Merck chemicals were utilized.
Untreated cells were used as control, considered 100% viable cells.

[2] = test system: Pseudomonas aeruginosa ATCC27853; test: Antibiofilm assay (crystal violet), MBIC; format: cell-based; conditions: 37 °C; for minimal effective concentration: Pseudomonas aeruginosa, ATCC27853, 24 h, read-out: Minimum biofilm inhibition concentration (MBIC), Pseudomonas aeruginosa ATCC27853
Procedure: (§1) Microorganisms were grown in 96-well plates filled with nutrient broth along with test substances, followed by incubation at 37 °C for 24 h. Plates were cleaned and rinsed thrice using SPW solution (sterile physiological water). After that, the attached cells were treated with 110 μL of methanol for 5 min, and then the methanol was removed by turning it upside down. […] Once stained, the solution was removed, and the plates were washed with running tap water. […] The antimicrobial/antibiofilm activity of the compounds was evaluated against two antibiotics, commercial formulations of metronidazole and nitrofurantoin.

[3] = test system: Escherichia coli ATCC25922; test: Antibiofilm assay (crystal violet), MBIC; format: cell-based; conditions: 37 °C; for minimal effective concentration: Escherichia coli, ATCC25922, 24 h, read-out: Minimum biofilm inhibition concentration (MBIC), Escherichia coli ATCC25922
Procedure: as §1

[4] = test system: Staphylococcus aureus ATCC25923; test: Antibiofilm assay (crystal violet), MBIC; format: cell-based; conditions: Staphylococcus aureus, ATCC25923; 24 h, 37 °C; read-out: Minimum biofilm inhibition concentration (MBIC), Staphylococcus aureus ATCC25923
Procedure: as §1

[5] = test system: Enterococcus faecalis ATCC29212; test: Antibiofilm assay (crystal violet), MBIC; format: cell-based; conditions: 37 °C; for minimal effective concentration: Enterococcus faecalis, ATCC29212, 24 h, read-out: Minimum biofilm inhibition concentration (MBIC), Enterococcus faecalis ATCC29212
Procedure: as §1

[6] = test system: Pseudomonas aeruginosa ATCC27853; test: Qualitative evaluation of antimicrobial activity (inhibition zone, spot on agar); format: cell-based; set-up: key: (+) inhibited bacterial growth; (-) did not inhibit bacterial growth; conditions: 0.06 g/2 mL DMSO, 5 µL spot
Procedure: (§2) For testing the antimicrobial/antibiofilm activity, the concentration of the studied compounds was identical to 0.06 g/2 mL DMSO. 0.5 Standard McFarland suspension was used, which was inoculated onto Mueller Hinton agar plates, (Remel, Lenexa, KS, USA), 5 µL of each compound was spotted and incubated overnight at 37 °C. Antimicrobial activity was observed as zones of inhibition formed around the spot.

[7] = test system: Escherichia coli ATCC25922; test: as above; format: cell-based; set-up: key: (+) inhibited bacterial growth; (-) did not inhibit bacterial growth; conditions: 0.06 g/2 mL DMSO, 5 µL spot
Procedure: as §2

[8] = test system: Staphylococcus aureus ATCC25923; test: as above; format: cell-based; set-up: key: (+) inhibited bacterial growth; (-) did not inhibit bacterial growth; conditions: 0.06 g/2 mL DMSO, 5 µL spot
Procedure: as §2

[9] = test system: Enterococcus faecalis ATCC29212; test: as above; format: cell-based; set-up: key: (+) inhibited bacterial growth; (-) did not inhibit bacterial growth; conditions: 0.06 g/2 mL DMSO, 5 µL spot
Procedure: as §2

[10] = test system: Pseudomonas aeruginosa ATCC27853; test: MIC by serial microdilution in liquid medium; format: cell-based; conditions: 24 h, 37 °C; for MIC: Pseudomonas aeruginosa, ATCC27853, read-out: Minimum inhibitory concentration, Pseudomonas aeruginosa ATCC27853
Procedure: (§3) The minimum inhibitory concentrations (MIC) were determined by the serial microdilution method in a liquid medium (Tryptone Soy Broth), on 96-well plates. Serial binary dilutions of the compound stock solution (10 mg/mL in DMSO) were carried out in 90 µL of culture medium and 10 µL of 10^6 CFU/mL (Colony Forming Units) microbial suspension. Each test included a positive control (wells with culture medium and microbial suspension) and a negative control for medium sterility. After incubation at 37 °C for 24 h the plates were visually examined, and optical density was measured at 620 nm. […] The MIC value (µg/mL) for the chemical compound was determined by the concentration in the final well without bacterial growth. All experiments were performed in triplicate.

[11] = test system: Escherichia coli ATCC25922; test: MIC by serial microdilution in liquid medium; format: cell-based; conditions: 24 h, 37 °C; for MIC: Escherichia coli, ATCC25922, read-out: Minimum inhibitory concentration, Escherichia coli ATCC25922
Procedure: as §3

[12] = test system: Staphylococcus aureus ATCC25923; test: MIC by serial microdilution in liquid medium; format: cell-based; conditions: 24 h, 37 °C; for MIC: Staphylococcus aureus, ATCC25923, read-out: Minimum inhibitory concentration, Staphylococcus aureus ATCC25923
Procedure: as §3

[13] = test system: Enterococcus faecalis ATCC29212; test: MIC by serial microdilution in liquid medium; format: cell-based; conditions: 24 h, 37 °C; for MIC: Enterococcus faecalis, ATCC29212, read-out: Minimum inhibitory concentration, Enterococcus faecalis ATCC29212
Procedure: as §3

[14] = test system: HEp-2 epithelial tumor cells; test: MTT cell viability / anti-tumor activity; conditions: Homo sapiens, read-out: Cell viability on Hep2 cells (%)
Procedure: The cytotoxicity of the halogenoaminopyrazole derivatives 4a–f and 5a–e was tested on L929 mouse fibroblast cells, and their anti-tumor activity was evaluated on the human carcinoma epithelial cell line HEp-2. The experiments were performed in a concentration range of 3.1–50 μg/mL.
The MTT test was used, 3-(4,5-dimethylthiazol-2-yl)-2,5-diphenyl tetrazolium bromide), which is reduced to insoluble purple-blue formazan crystals precipitated by living cells. Cell viability assessed using the MTT assay reflects the activity of mitochondrial enzymes in treated cells compared to the control culture of untreated cells.
To assess the biocompatibility of the substances, a stable mouse fibroblast cell line, NCTC (clone 929), was grown in minimal essential medium (MEM) with 10% fetal bovine serum (FBS) and 2 mM L-glutamine, along with 100 U/mL penicillin, 100 µg/mL streptomycin, and 500 µg/mL neomycin. The concentration of the compounds used was 0.06 g/2 mL DMSO.
In cytotoxicity experiments, compound solutions were utilized at concentrations of 3.1 μg/mL, 6.25 μg/mL, 12.5 μg/mL, 25 μg/mL, and 50 μg/mL. The NCTC cell suspension was placed into 96-well culture plates with a concentration of 4 × 10^4 cells/mL and incubated at 37 °C for 24 h in a 5% CO2 humidified atmosphere. The compounds under study were placed in sets of three at varying concentrations ranging from 3.1 μg/mL to 50 μg/mL in every well, and the plates were then kept under standard conditions for 48 h. Cell viability was determined through the utilization of the MTT assay. Next, the MTT solution was removed, then isopropanol was added to solubilize the formazan crystals. The colored solution was then measured for absorbance at 570 nm using a Berthold Technologies, LB 940 microplate reader (Bad Wildbad, Germany). The outcomes were determined based on Formula (1) while considering that the recorded optical density is directly related to the number of viable cells in the cell culture being examined [35, 36]. % cell viability = (OD sample/OD control) × 100%(1)
For each tested compound, a graph representing percentage cell viability versus concentrations (in the range 3.1–50 µg/mL) was obtained. Then, the IC50 value was calculated by using ED50 plus V1.0 software.

[15] = NCTC clone 929 (L929) mouse fibroblast cells
[16] = read-out: Cell viability on NCTC cells (%)

SMILES	melting point	minimal effective concentration [2]	minimal effective concentration [3]	minimal effective concentration [4]	minimal effective concentration [5]	Qualitative antimicrobial activity, Pseudomonas aeruginosa ATCC27853 [6]	Qualitative antimicrobial activity, Escherichia coli ATCC25922 [7]	Qualitative antimicrobial activity, Staphylococcus aureus ATCC25923 [8]	Qualitative antimicrobial activity, Enterococcus faecalis ATCC29212 [9]	MIC [10]	MIC [11]	MIC [12]	MIC [13]	viability at 3.1 µg/mL ([14]; HEp-2, 24 h)	viability at 6.25 µg/mL ([14]; HEp-2, 24 h)	viability at 12.5 µg/mL ([14]; HEp-2, 24 h)	viability at 25 µg/mL ([14]; HEp-2, 24 h)	viability at 50 µg/mL ([14]; HEp-2, 24 h)	viability at 3.1 µg/mL ([14]; HEp-2, 48 h)	viability at 6.25 µg/mL ([14]; HEp-2, 48 h)	also measured
Cc1nn(CNc2ccc(Br)cc2)c(C)c1[N+](=O)[O-] [4c, N-[(3,5-dimetyl-4-nitro-1H-pyrazol-1-yl)-methyl]-4-bromoaniline]	118 to 120 °C	930 ± 0.52 µg/mL	930 ± 0.11 µg/mL	930 ± 0.06 µg/mL	930 ± 1.09 µg/mL	-	-	-	-	930 ± 1.08 µg/mL (≈ 2.86 mM)	930 ± 1.05 µg/mL (≈ 2.86 mM)	930 ± 0.04 µg/mL (≈ 2.86 mM)	930 ± 0.03 µg/mL (≈ 2.86 mM)	101 ± 2.04%	103 ± 2.31%	100 ± 3.15%	98.7 ± 1.83%	92.64 ± 0.9%	116 ± 2.55%	104.2 ± 0.88%	viability at 24 h, 3.1 µg/mL [1, 15]: 99.2 ± 0.97%; viability at 48 h, 3.1 µg/mL [1, 15]: 99.67 ± 0.71%; viability at 24 h, 6.25 µg/mL [1, 15]: 97.1 ± 3.04%; viability at 48 h, 6.25 µg/mL [1, 15]: 98.8 ± 1.92%; viability at 24 h, 12.5 µg/mL [1, 15]: 95.6 ± 0.62%; viability at 48 h, 12.5 µg/mL [1, 15]: 97.2 ± 3.5%; viability at 24 h, 25 µg/mL [1, 15]: 95.5 ± 2.14%; viability at 48 h, 25 µg/mL [1, 15]: 95.6 ± 2.93%; viability at 24 h, 50 µg/mL [1, 15]: 91.1 ± 3.04%; viability at 48 h, 50 µg/mL [1, 15]: 81.5 ± 3.26%; viability at 12.5 µg/mL ([14]; HEp-2, 48 h): 99.6 ± 2.32%; viability at 25 µg/mL ([14]; HEp-2, 48 h): 82.6 ± 3.28%; viability at 50 µg/mL ([14]; HEp-2, 48 h): 70.2 ± 1.91%
Cc1nn(CN(Cn2nc(C)c([N+](=O)[O-])c2C)c2ccc(Br)cc2)c(C)c1[N+](=O)[O-] [5c, N,N-bis-[(3,5-dimetyl-4-nitro-1H-pyrazol-1-yl)-methyl]-4-bromoaniline]	133 to 135 °C	1870 µg/mL	3750 µg/mL	1870 ± 0.15 µg/mL	1870 µg/mL	-	-	-	-	3750 µg/mL (≈ 7.84 mM)	3750 µg/mL (≈ 7.84 mM)	3750 µg/mL (≈ 7.84 mM)	3750 µg/mL (≈ 7.84 mM)	112 ± 2.32%	114 ± 2.18%	117 ± 2.83%	113 ± 1.52%	102 ± 2.71%	96.9 ± 1.38%	96.5 ± 1.58%	viability at 24 h, 3.1 µg/mL [1, 16]: 105 ± 1.96%; viability at 48 h, 3.1 µg/mL [1, 16]: 96.7 ± 2.96%; viability at 24 h, 6.25 µg/mL [1, 16]: 106 ± 2.3%; viability at 48 h, 6.25 µg/mL [1, 16]: 101 ± 3.63%; viability at 24 h, 12.5 µg/mL [1, 16]: 106 ± 3.74%; viability at 48 h, 12.5 µg/mL [1, 16]: 97.4 ± 1.99%; viability at 24 h, 25 µg/mL [1, 16]: 105 ± 1.88%; viability at 48 h, 25 µg/mL [1, 16]: 96.6 ± 2.02%; viability at 24 h, 50 µg/mL [1, 16]: 84 ± 2.12%; viability at 48 h, 50 µg/mL [1, 16]: 68 ± 1.61%; Minimum biofilm inhibition concentration (MBIC), Pseudomonas aeruginosa ATCC27853 ([2]; 24 h): 1870 ± 0.53 µg/mL; Minimum biofilm inhibition concentration (MBIC), Escherichia coli ATCC25922 ([3]; 24 h): 3750 ± 0.48 µg/mL; Minimum biofilm inhibition concentration (MBIC), Enterococcus faecalis ATCC29212 ([5]; 24 h): 1870 ± 0.06 µg/mL; Minimum inhibitory concentration, Pseudomonas aeruginosa ATCC27853 [10]: 3750 ± 0.51 µg/mL (≈ 7.84 mM); Minimum inhibitory concentration, Escherichia coli ATCC25922 [11]: 3750 ± 0.54 µg/mL (≈ 7.84 mM); Minimum inhibitory concentration, Staphylococcus aureus ATCC25923 [12]: 3750 ± 0.04 µg/mL (≈ 7.84 mM); Minimum inhibitory concentration, Enterococcus faecalis ATCC29212 [13]: 3750 ± 0.08 µg/mL (≈ 7.84 mM); viability at 12.5 µg/mL ([14]; HEp-2, 48 h): 89.2 ± 2.02%; viability at 25 µg/mL ([14]; HEp-2, 48 h): 65.3 ± 2.09%; viability at 50 µg/mL ([14]; HEp-2, 48 h): 50.2 ± 2.02%
